Assay results reported in patent US5459158A, “Pharmaceutical compositions of indazoles and methods of use thereof” (priority 1992, dated 1995).
Like-named read-outs stand apart in the source and are kept apart here. Each block holds one molecule with its values, some of them ahead of it.

Tests used:
mouse cerebellar NOS [1] = biological target: T1, mouse cerebellar NOS (Mus musculus, UniProt Q9Z0J4); experiment: inhibition of mouse cerebellar nitric oxide synthase (NOS) activity in vitro; format: biochemical; details: for IC50: mouse cerebella homogenate, 15 minutes, 37° C., mean ± s.e. mean, n=6
T1 construct: Cerebella were removed, homogenized; from tissue; host or cells: cerebellum of male LACA mice, crude homogenate

mouse cerebellar NOS [2] = biological target: T1, mouse cerebellar NOS; experiment: mouse cerebellar NOS activity after i.p. administration (ex vivo); format: in vivo; details: n=6, P<0.01
Protocol: Nitric oxide synthase (NOS) activity was determined in vitro by the method of Dwyer et al., Biochem. Biophys. Res. Commun. […] Mice (male, LACA, 28-32 g) were killed by cervical dislocation. […] Final incubation volume was 105 μl. After 15 minutes the reaction was stopped by addition of 3 ml HEPES buffer (20 mM containing 2 mM EDTA, pH 5.5) and the [^3 H]-citrulline produced was separated by cation exchange chromatography on 0.5 ml columns of Dowex AG50-W8 Na^+ form. [^3 H]-Citrulline was quantitated by liquid scintillation spectroscopy of duplicate 1 ml aliquots of the flow-through.
Cerebella were removed, homogenized and NOS activity determined as described above.

nitric oxide synthase = details: Moore et al., British Journal of Pharmacology, 1991, 102, 198-202; cited from earlier work
mice = experiment: anti-nociceptive activity, formalin-induced hindpaw licking assay; format: in vivo, mouse; details: for Inhibition of licking (%): 50 mg kg^-1 i.p., late phase
Protocol: Control animals received 10 ml kg^-1 of arachis oil or saline (0.9% w/v NaCl).
The percentage inhibition of formalin-induced licking in the late phase following the administration of 50 mg kg^-1 i.p. of the indazoles is shown in the Table below.

[3] = biological target: T2, rat cerebellar nitric oxide synthase (NOS) (Rattus norvegicus, UniProt P29476); experiment: inhibition of rat cerebellar nitric oxide synthase (NOS); format: biochemical
T2 construct: from tissue
Protocol: Nitric oxide synthase (NOS) activity was determined in vitro by the method of Dwyer et al., Biochem. Biophys. Res. Commun. 1991, 176, 1136-1141. Mice (male, LACA, 28-32 g) were killed by cervical dislocation. Cerebella were removed, homogenized (1-10 w/v in 20 mM Tris buffer containing 2 mM EDTA, pH. 7.4) and aliquots (25 μl) incubated (37° C.) with L-arginine (120 nM) containing 0.5 μCi [^3 H]-arginine (specific activity 62 Ci mmol^-1), NADPH (0.5 mM) and CaCl2 (0.75 mM). […] Final incubation volume was 105 μl. After 15 minutes the reaction was stopped by addition of 3 ml HEPES buffer (20 mM containing 2 mM EDTA, pH 5.5) and the [^3 H]-citrulline produced was separated by cation exchange chromatography on 0.5 ml columns of Dowex AG50-W8 Na^+ form. [^3 H]-Citrulline was quantitated by liquid scintillation spectroscopy of duplicate 1 ml aliquots of the flow-through.

[4] = blood pressure (MAP) of urethane-anaesthetized mice; format: in vivo, mouse; details: for mean arterial pressure (MAP): n=4
[5] = rat cerebella, read-out: IC50 NOS
[6] = ratio of IC50 on mouse cerebellar NOS in vitro

T1 sequence (Q9Z0J4 whole entry): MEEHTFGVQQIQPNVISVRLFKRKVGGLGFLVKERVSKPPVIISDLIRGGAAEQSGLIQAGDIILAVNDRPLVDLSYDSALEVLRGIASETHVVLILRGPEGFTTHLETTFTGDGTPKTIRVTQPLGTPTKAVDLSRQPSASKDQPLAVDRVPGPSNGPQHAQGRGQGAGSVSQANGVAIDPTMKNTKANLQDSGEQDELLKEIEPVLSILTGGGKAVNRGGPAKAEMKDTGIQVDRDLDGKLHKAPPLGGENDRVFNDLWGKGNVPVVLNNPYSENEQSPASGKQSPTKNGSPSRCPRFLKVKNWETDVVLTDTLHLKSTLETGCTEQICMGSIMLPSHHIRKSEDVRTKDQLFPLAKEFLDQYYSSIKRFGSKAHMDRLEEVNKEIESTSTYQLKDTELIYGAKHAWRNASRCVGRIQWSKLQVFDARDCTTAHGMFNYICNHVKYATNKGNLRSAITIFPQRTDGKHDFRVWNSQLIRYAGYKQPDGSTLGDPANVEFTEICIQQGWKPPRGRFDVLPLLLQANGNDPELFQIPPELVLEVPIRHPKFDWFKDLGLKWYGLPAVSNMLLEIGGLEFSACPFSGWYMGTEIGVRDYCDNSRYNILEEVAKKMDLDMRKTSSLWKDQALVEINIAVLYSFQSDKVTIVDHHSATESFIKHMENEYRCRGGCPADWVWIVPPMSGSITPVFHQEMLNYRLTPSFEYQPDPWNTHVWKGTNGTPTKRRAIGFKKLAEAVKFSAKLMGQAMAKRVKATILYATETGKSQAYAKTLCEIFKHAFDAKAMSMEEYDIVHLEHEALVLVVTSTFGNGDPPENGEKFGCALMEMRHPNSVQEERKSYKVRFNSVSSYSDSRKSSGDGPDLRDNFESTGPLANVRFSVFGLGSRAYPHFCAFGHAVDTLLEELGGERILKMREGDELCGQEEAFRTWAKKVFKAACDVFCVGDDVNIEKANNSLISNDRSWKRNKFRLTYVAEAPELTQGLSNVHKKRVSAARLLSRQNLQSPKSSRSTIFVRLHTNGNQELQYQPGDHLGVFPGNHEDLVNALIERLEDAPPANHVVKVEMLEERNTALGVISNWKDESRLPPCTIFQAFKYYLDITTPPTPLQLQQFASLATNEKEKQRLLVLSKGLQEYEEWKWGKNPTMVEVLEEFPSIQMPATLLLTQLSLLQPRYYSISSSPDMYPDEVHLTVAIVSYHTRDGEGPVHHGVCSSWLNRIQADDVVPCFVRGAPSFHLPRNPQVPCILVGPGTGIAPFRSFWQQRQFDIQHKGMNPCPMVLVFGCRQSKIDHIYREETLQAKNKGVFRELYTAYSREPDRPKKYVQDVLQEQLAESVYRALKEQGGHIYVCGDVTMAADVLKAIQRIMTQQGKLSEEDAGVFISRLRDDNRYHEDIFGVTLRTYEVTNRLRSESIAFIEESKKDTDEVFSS

Structure (SMILES): COC(=O)[C@@H](N)CCCNC(=N)N[N+](=O)[O-] [L-NAME, L-N^G -nitroarginine methyl ester, reference compound]
- IC50 (mouse cerebellar NOS [1]): 870 ± 20 nM
- mouse cerebellar NOS activity (mouse cerebellar NOS [2]; 50 mg kg^-1, i.p., 15 minutes, cf 8.33±0.15 saline-injected controls): 4.46±0.012 pmol citrulline mg^-1 protein 15 min^-1
- inhibition at 50 mg/kg (mouse cerebellar NOS [2]; mouse, ip, 50 mg kg^-1, i.p., 15 minutes): 46.2 ± 1.6%
- block of nitric oxide synthase in brain and peripherally (nitric oxide synthase): blocks this enzyme not only in the brain but also peripherally

- IC50 [3, 5]: 32 µM
Structure (SMILES): O=[N+]([O-])c1ccc2cn[nH]c2c1 [6-nitroindazole]
- Inhibition of licking (%) (mice): 67.0 ± 12.0%

Structure (SMILES): c1ccc2[nH]ncc2c1 [indazole]
- Inhibition of licking (%) (mice): 83.2 ± 12.2%
- IC50 [3]: 232 µM

- IC50 (mouse cerebellar NOS [1]): 2370 ± 30 nM
Structure (SMILES): CNC(=N)NCCC[C@H](N)C(=O)O [L-NMMA, L-N^G -monomethyl arginine, reference compound]

- IC50 [3, 5]: 100 µM
Structure (SMILES): Clc1n[nH]c2ccccc12 [3-chloroindazole]

- IC50 [3, 5]: 56 µM
Structure (SMILES): O=[N+]([O-])c1ccc2[nH]ncc2c1 [5-nitroindazole]

- IC50 [3, 5]: 177 µM
Structure (SMILES): O=[N+]([O-])c1ccc2[nH]nc(Cl)c2c1 [3-chloro-5-nitroindazole]

Structure (SMILES): O=[N+]([O-])c1cccc2cn[nH]c12 [7-nitroindazole]
- IC50 (mouse cerebellar NOS [1]): 470 ± 10 nM
- times more potent than L-NAME (mouse cerebellar NOS [1]; [6]): 1.8 times
- times more potent than L-NMMA (mouse cerebellar NOS [1]; [6]): 5 times
- decrease of mouse cerebellar NOS activity (mouse cerebellar NOS [2]; 25 mg kg^-1, i.p., 15 minutes thereafter): over 55%
- mouse cerebellar NOS activity (mouse cerebellar NOS [2]; 25 mg kg^-1, i.p., 15 minutes, cf 9.1±0.26 arachis oil-injected controls): 3.9±0.06 nmol citrulline mg^-1 protein 15 min^-1
- Inhibition of licking (%) (mice): 100%
- early phase response of formalin-induced hindpaw licking (in words) (mice; 10, 25 and 50 mg kg^-1 i.p., early phase (0-5 minutes)): without influencing the early phase response
- inhibition of late phase formalin-induced hindpaw licking (in words) (mice; 10, 25 and 50 mg kg^-1 i.p., late phase (15-30 minutes)): dose-related inhibition of late phase formalin-induced hindpaw licking
- ED50 for the anti-nociceptive effect (mice; i.p., mice): 26 mg/kg
- ED50 for the anti-nociceptive effect (equivalent) (mice; i.p., mice, converted from 26 mg kg^-1): 159.5 µmol/kg
- mean arterial pressure (MAP) ([4]; 25 mg kg^-1 i.p., cf 51.6±4.4 before administration): 47.4±5.1 mmHg
- mean arterial pressure (MAP) ([4]; 80 mg kg^-1 i.p., cf 49.5±2.9 before administration): 43.9±5.3 mmHg
- mean arterial pressure (MAP), change in words ([4]; 25 and 80 mg kg^-1 i.p., over 45 minutes): did not increase mean arterial pressure
